Results: ChEMBL document CHEMBL1201862, “PubChem BioAssay data set” (2004)
Activity calls are given as the source filed them.

How the values were obtained:
[1] = NIH-3T3 fibroblast cytotoxicity, dose response, cytotoxicity control, cell-based, fluorescence, Alamar Blue, secondary assay (AID 2327); type: functional;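 further: NIH-3T3 mouse fibroblasts cultured with fluconazole at 8 µg/mL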
[2] = fluconazole-exposed Candida albicans growth modulators – fluorescence, retest, confirmation (AID 2467); type: functional, cell-based
[3] = target: Serine/threonine-protein phosphatase (Candida dubliniensis (strain CD36 / CBS 7987 / NCPF 3949 / NRRLY-17841) (Yeast), UniProt B9W6M3); test: blockers of CaCl2-induced CDRE-lacZ signaling – S. cerevisiae, luminescence, secondary, dose response (AID 2388); type: functional, cell-based;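 further: yeast reporter cells carrying a calcineurin-responsive lacZ construct stimulated with calcium chloride; luminescent beta-galactosidase reporter signal in whole cells rather than isolated phosphatase activity; potency for inhibition where a drop in reporter signal means calcineurin blockade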
[4] = target: ATP-dependent molecular chaperone HSP82 (Candida albicans (strain WO-1) (Yeast), UniProt C4YTQ8); test: steroid-induced GRE reporter decrease in yeast – S. cerevisiae, luminescence, Hsp90 inhibitor project, dose response (AID 2400); type: functional, cell-based;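 further: beta-galactosidase luminescence from glucocorticoid response element reporter as proxy for Hsp90 function; inhibitor potency where signal loss means Hsp90 inhibition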
[5] = blockers of HIV-1 envelope-mediated cell-cell fusion – cherry-pick, dose response (AID 652057); type: functional, cell-based
[6] = viability loss in CEM21 cells – cell-based, CellTiter-Glo luminescence, cherry-picked, cytotoxicity control for viral fusion inhibitor project, dose response (AID 652042); type: functional;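 further: potency for signal decrease meaning cytotoxicity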
[7] = blockers of HIV-1 ZM109 envelope-driven cell-cell fusion – HeLa effector, CEM target cells, luciferase, cherry-pick, dose response (AID 652058); type: functional, cell-based;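 further: luciferase signal from HIV-1 Env mediated cell-cell fusion of effector and target cells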
[8] = off-target signal loss in HeLa-CEM21 co-culture – HeLa F-luc CTL cells, cherry-picked, counter-screen for HIV-1 Env fusion inhibitor project, dose response (AID 652040); type: functional, cell-based;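 further: potency for signal decrease marking cytotoxic or nonspecific inhibition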
[9] = HIV-1 AD8 envelope cell-cell fusion blockers – cherry-pick, dose response (AID 652062); type: functional, cell-based;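 further: luciferase signal from cell-cell fusion driven by HIV-1 clade B AD8 Env; potency is for inhibitors of fusion seen as a drop in luminescence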
HEK293 [10] = test: cells; conditions: Homo sapiens
HEK293 [11] = test: cells; conditions: Homo sapiens; remark: listed apart in the source
BJ [12] = test: BJ-TERT fibroblast viability loss – cell-based, RAS-independent, luminescence, dose response (AID 1933); type: functional; conditions: Homo sapiens
[13] = target: T1, Heat shock factor protein 1 (Mus musculus, UniProt P38532); test: decrease of HSF1-responsive luciferase luminescence – cell-based, NIH3T3, dose retest, confirmation (AID 2382); type: functional;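 further: NIH3T3 fibroblasts with HSF1-driven luciferase reporter stressed by proteasome inhibitor MG132; luminescence from HSF1-driven luciferase expression after 8 hours of MG132 stress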
T1 sequence (P38532 whole entry): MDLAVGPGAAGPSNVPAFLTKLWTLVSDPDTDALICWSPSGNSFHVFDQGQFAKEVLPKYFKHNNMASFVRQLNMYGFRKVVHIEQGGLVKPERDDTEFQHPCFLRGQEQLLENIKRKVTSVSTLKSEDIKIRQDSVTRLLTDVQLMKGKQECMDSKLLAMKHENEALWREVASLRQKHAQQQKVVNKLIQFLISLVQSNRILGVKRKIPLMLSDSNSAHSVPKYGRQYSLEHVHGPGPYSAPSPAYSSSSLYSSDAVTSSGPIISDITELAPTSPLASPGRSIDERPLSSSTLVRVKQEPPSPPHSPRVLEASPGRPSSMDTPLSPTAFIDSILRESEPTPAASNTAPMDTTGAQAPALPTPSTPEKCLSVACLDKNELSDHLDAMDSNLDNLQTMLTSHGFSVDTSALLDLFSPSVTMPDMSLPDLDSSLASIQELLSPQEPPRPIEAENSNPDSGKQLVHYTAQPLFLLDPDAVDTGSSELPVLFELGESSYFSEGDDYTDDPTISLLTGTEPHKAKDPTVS

BJ [14] = test: cells; type: functional, cell-based; conditions: Homo sapiens
[15] = viability of PTEN-deleted HCT116 cells – cell-based, HCT116 PTEN knockout, dose response (AID 1047); type: functional;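 further: HCT116 colon tumor cells with PTEN knocked out; cells exposed to compound for 60 hours before readout; potency for loss of cell viability measured by luminescence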
[16] = viability of HCT116 lacking mutant beta-catenin – cell-based, human colon tumor, dose response (AID 1045); type: functional;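 further: HCT116 colon tumor cells with beta catenin knocked out; cells exposed to compound for 60 hours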
BJ [17] = test: BJ-TERT-LT-ST fibroblast viability loss – cell-based, RAS-independent, luminescence, dose response (AID 1935); type: functional; conditions: Homo sapiens;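 further: BJ fibroblasts immortalized with TERT plus LT and ST oncogenes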
[18] = DRD fibroblast viability loss – cell-based, non-viral oncogenic, luminescence, dose response (AID 1934); type: functional; conditions: Homo sapiens
[19] = target: G-protein coupled receptor 55 (Homo sapiens, UniProt Q9Y2T6); test: selective activators of receptor GPR55 – imaging, U2OS cells, beta-arrestin-GFP redistribution, primary screen (AID 1961); type: functional
[20] = Luminescence Cell-Based Dose Retest to Confirm Inhibitors of Cancer Stem Cells. [Related pubchem assays (depositor defined):AID2717, AID2721]; type: functional; conditions: Homo sapiens
BJ [21] = test: growth inhibition of engineered Ras-driven BJ cells – cell-based, alamar blue fluorescence, cherrypicked samples, dose response (AID 2631); type: functional; conditions: Homo sapiens;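 further: confirmatory dose-response assay in RAS-dependent BJ fibroblasts engineered with TERT, LT and ST, with cytotoxicity read by fluorescence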
INS1 = test: INS-1E survival protection against cytokine death – cell-based, luminescence, retest, dose response (AID 449756); type: functional; conditions: Rattus norvegicus;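 further: cell death triggered by IL-1 beta plus TNF-alpha plus IFN-gamma mixture; protective hits raise ATP signal compared with cytokine alone wells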
[22] = reduction of Shn3 3'UTR-driven luciferase in osteoblasts – cell-based, Clone20 osteoblasts, firefly luciferase, cherry-picked, dose response (AID 624132); type: functional;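 further: firefly luciferase luminescence from reporter carrying the Shn3 3'UTR in osteoblasts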
[23] = non-specific 3'UTR reporter inhibition in Clone20-Shn3RL – cell-based, Renilla luciferase, cherry-picked, counter-screen for Shn3 inhibitor project, dose response (AID 624133); type: functional
[24] = target: T2, Corticotropin-releasing factor receptor 2/Corticotropin-releasing factor-binding protein (Homo sapiens, UniProt P24387+Q13324); test: Dose Response confirmation of uHTS hits for small molecule antagonists of the CRF-binding protein and CRF-R2 receptor complex.; type: functional; conditions: read-out: IC50_Mean
T2 sequence (Q13324 whole entry): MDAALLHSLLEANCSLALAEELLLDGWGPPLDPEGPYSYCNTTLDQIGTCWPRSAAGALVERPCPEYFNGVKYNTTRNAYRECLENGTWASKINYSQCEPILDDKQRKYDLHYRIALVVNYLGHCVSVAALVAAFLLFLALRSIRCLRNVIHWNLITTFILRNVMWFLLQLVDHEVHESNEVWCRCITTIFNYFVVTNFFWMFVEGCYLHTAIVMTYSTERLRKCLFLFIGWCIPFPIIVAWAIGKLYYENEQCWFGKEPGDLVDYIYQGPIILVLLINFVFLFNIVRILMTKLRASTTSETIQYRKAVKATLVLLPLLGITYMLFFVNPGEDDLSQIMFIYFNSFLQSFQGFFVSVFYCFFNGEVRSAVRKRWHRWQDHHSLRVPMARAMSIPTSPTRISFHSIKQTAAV
T2 sequence (P24387 whole entry): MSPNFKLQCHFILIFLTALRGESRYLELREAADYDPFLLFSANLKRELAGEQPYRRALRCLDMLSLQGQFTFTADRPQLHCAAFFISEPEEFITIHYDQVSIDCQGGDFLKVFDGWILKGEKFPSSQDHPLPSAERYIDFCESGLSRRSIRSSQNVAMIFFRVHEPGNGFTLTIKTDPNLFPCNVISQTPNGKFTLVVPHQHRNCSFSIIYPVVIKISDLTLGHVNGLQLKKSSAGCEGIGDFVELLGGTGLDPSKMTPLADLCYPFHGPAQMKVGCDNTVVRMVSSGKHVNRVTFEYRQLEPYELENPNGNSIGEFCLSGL

[25] = target: T2, Corticotropin-releasing factor receptor 2/Corticotropin-releasing factor-binding protein; test: activators of CRF receptor 2 with binding protein – uHTS hits, confirmation (AID 602473); type: functional; conditions: read-out: EC50_Mean
Escherichia coli = test: microbe, parasite or virus in culture
HEK293 [26] = test: EBV LMP1 TES2 canonical NF-kB signalling blockers – cell-based, HEK293, luciferase, cherry-pick, dose response (AID 588343); type: functional; conditions: Homo sapiens
[27] = target: Latent membrane protein 1 (Human herpesvirus 4 (strain B95-8), UniProt P03230); test: LMP1 TES1 pathway selectivity over dsRED control – imaging, HEK293T, dual-color eGFP/dsRED, cherry-picks, selectivity assay for LMP1 NF-kB inhibitor project, dose response (AID 588398); type: functional, cell-based
[28] = test system: Streptococcus sp. 'group A'; test: Streptococcus pyogenes SK(-)GAS viability under kanamycin – luminescence, BacTiterGlo, confirmation, counter-screen for streptokinase expression inhibitor project, dose response (AID 1900); type: functional, organism-based
Streptococcus = test: GAS UMAA2166 growth inhibition – luminescence, BacTiterGlo, counter-screen for streptokinase expression inhibitor project, dose response (AID 1915); type: functional, organism-based;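 further: potency for reduction of bacterial viability or growth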
Nonstructural protein 1 = Nonstructural protein 1 (Influenza A virus, UniProt Q194T2); type: functional, Influenza A virus (A/California/07/2009(H1N1))
Vero = test: cells; type: functional; conditions: Chlorocebus sabaeus
ORF 73 = target: T3, ORF 73 (Human herpesvirus 8, UniProt O40947); test: KSHV LANA DNA-binding disruption – biochemical, fluorescence polarization, cherry-picked samples, dose response (AID 504725); parameters: species or system Human gammaherpesvirus 8;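 further: fluorescence polarization of a labeled DNA duplex reporting LANA DNA binding; potency is for inhibitors that block LANA binding to the DNA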
T3 sequence (O40947 whole entry): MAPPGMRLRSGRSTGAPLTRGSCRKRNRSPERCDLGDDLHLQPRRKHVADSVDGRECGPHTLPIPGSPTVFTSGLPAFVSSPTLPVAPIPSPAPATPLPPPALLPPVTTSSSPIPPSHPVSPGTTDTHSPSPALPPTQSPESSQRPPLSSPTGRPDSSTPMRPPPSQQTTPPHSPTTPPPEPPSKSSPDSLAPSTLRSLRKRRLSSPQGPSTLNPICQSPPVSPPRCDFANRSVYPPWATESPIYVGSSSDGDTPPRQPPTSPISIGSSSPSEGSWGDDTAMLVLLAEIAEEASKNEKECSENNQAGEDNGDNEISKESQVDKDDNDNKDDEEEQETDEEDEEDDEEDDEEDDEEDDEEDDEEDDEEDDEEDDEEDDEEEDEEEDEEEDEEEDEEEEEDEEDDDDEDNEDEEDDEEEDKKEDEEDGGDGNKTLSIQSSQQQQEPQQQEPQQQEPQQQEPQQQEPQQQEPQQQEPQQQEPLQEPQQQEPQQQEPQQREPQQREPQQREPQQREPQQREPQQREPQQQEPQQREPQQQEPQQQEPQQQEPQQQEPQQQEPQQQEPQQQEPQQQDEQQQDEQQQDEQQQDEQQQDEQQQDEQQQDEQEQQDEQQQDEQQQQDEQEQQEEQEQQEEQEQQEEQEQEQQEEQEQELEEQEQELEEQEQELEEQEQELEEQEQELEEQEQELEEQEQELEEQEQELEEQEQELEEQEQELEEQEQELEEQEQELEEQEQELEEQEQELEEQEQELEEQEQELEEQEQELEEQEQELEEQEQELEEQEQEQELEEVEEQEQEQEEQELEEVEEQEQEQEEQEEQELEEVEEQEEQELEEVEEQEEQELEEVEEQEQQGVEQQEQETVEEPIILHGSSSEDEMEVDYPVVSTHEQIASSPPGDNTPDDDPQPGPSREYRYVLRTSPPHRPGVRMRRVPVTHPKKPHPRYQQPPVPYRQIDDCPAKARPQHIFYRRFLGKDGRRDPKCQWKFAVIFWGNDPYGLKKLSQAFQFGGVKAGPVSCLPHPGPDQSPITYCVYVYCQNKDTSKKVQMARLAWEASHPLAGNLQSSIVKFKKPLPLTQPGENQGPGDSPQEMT

Keap1/Nrf2 = Keap1/Nrf2 (Homo sapiens, UniProt Q14145); test: disruptors of Keap1 binding to Nrf2 peptide – biochemical, fluorescence polarization, cherry-picked samples, dose response (AID 588683)
Chain of Keap1/Nrf2 (Q16236 whole entry): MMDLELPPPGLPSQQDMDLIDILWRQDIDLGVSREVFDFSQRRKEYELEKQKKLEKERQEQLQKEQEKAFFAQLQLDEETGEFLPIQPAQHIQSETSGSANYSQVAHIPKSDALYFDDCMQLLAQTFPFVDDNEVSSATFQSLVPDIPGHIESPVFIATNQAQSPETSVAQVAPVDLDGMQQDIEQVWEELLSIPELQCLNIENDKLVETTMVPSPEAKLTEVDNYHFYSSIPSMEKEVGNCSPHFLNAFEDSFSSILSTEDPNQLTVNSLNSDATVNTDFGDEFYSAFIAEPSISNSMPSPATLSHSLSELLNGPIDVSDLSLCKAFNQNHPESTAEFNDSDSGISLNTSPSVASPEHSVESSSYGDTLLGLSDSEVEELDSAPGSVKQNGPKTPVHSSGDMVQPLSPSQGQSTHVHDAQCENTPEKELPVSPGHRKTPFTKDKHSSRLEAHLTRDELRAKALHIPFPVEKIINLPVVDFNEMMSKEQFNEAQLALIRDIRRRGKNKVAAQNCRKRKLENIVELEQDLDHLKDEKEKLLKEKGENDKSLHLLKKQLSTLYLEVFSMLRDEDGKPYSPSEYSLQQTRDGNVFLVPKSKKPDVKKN
Chain of Keap1/Nrf2 (Q14145 whole entry): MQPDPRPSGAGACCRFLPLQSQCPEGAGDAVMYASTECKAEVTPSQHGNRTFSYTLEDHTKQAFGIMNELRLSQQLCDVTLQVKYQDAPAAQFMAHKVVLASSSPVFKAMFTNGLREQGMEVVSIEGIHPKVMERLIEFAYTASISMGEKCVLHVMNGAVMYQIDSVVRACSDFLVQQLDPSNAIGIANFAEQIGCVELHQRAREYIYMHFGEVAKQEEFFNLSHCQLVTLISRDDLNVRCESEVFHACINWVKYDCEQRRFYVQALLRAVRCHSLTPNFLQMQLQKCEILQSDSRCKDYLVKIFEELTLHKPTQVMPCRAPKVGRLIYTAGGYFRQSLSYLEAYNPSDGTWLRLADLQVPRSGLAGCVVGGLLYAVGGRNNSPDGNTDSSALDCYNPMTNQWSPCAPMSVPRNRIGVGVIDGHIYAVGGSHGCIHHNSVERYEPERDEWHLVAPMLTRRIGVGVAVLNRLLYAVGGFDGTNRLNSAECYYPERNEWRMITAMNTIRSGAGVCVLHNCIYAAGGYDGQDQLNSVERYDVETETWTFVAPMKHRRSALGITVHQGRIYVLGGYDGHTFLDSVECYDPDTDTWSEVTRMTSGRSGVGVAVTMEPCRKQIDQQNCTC

Chain of Serine/threonine-protein phosphatase (B9W6M3 whole entry): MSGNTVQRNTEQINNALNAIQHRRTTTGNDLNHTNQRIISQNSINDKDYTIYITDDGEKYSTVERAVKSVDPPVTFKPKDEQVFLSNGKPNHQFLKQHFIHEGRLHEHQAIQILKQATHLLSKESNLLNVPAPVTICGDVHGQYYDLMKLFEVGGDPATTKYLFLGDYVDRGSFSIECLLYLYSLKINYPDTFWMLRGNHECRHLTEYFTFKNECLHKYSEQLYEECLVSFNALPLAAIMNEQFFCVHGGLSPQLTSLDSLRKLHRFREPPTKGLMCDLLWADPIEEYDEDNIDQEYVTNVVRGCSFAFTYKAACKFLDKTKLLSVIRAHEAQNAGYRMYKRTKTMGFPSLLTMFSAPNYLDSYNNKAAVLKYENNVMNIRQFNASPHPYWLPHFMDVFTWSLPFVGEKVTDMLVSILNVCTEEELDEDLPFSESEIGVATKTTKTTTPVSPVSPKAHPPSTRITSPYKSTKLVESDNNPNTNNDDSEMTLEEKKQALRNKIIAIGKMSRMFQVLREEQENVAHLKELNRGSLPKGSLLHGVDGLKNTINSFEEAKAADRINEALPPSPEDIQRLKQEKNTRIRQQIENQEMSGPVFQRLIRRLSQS
Chain of ATP-dependent molecular chaperone HSP82 (C4YTQ8 whole entry, the tested form may be a part): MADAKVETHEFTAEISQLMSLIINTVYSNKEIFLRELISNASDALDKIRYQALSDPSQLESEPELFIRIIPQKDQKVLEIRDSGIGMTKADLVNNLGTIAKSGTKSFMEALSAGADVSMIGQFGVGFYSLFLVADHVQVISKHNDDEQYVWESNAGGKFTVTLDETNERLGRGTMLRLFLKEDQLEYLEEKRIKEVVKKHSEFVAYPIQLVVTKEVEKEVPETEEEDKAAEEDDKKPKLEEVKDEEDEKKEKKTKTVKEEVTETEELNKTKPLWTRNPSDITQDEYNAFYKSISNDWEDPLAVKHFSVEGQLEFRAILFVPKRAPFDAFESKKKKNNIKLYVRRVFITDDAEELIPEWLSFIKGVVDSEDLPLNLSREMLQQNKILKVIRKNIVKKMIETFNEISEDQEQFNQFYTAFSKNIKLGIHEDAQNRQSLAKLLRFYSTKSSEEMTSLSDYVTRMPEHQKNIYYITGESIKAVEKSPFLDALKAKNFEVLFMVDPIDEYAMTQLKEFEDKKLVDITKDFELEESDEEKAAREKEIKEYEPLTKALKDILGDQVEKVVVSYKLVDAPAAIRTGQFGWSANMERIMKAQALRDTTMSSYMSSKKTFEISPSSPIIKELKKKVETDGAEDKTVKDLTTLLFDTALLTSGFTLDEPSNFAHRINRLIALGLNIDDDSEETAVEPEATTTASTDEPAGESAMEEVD
Chain of G-protein coupled receptor 55 (Q9Y2T6 whole entry): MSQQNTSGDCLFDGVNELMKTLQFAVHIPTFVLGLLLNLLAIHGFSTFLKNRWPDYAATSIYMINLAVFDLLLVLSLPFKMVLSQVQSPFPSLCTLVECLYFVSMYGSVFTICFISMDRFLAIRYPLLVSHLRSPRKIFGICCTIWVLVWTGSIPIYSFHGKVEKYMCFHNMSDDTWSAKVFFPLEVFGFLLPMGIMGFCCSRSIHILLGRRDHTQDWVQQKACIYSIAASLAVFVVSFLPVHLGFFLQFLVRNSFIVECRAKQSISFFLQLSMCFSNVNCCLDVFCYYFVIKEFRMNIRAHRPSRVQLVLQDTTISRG
Chain of Latent membrane protein 1 (P03230 whole entry): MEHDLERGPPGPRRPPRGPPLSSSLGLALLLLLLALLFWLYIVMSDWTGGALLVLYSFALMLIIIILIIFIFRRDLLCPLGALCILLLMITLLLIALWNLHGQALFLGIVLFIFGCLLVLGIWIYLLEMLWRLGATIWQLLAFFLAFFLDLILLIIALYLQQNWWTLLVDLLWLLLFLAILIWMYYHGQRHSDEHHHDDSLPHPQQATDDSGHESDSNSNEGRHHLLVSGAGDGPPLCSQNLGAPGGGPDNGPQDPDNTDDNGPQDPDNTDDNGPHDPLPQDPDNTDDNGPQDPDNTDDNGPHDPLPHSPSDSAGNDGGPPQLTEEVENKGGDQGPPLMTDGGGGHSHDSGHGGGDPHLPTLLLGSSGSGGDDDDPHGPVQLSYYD
Chain of Nonstructural protein 1 (Q194T2 whole entry): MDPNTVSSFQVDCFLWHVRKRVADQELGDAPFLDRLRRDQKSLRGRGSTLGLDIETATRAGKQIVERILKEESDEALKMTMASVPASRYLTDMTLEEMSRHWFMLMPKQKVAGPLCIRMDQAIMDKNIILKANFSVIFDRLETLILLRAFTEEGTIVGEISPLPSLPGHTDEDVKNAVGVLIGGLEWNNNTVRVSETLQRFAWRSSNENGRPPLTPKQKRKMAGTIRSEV

CCCCOc1cccc(C2C(C(=O)c3ccc(C)o3)=C(O)C(=O)N2Cc2ccco2)c1 (configuration not stated)
EC50 [1]: > 150 µM (inactive)
EC50 [2]: 0.398 µM (active)
EC50 [3]: > 180 µM (inactive)
EC50 [4]: 16.6 µM (active)

COC(=O)c1c(NC(=O)CN2CCC3(O)CCCCC3C2c2cc(OC)ccc2OC)sc(C)c1C (configuration not stated)
AC50 [5]: 0.472 µM (active)
AC50 [6]: 48.1 µM (active)
AC50 [7]: 1.15 µM (active)
AC50 [8]: 1.21 µM (active)
AC50 [9]: 3.62 µM (active)
EC50 (HEK293 [10]): > 59.7 µM (inactive)
EC50 (HEK293 [11]): > 59.7 µM (inactive)

CCOC(=O)/C(=C\c1ccc([N+](=O)[O-])cc1)C(=O)c1cc(C(C)=O)c(Nc2ccccc2)s1
EC50 (BJ [12]): 2.12 µM (active)
EC50 [13]: 3.16 µM (inconclusive)
EC50 (BJ [14]): 3.1 µM (active)
EC50 [15]: 4.17 µM (active)
EC50 [16]: 3.81 µM (active)
EC50 (BJ [17]): 2.18 µM (inconclusive)
EC50 [18]: 3.32 µM (active)
EC50 [19]: > 32 µM (inactive)
AC50 [20]: 0.685 µM (active)
EC50 (BJ [21]): 1.49 µM (active)
AC50 (INS1): 1.94 µM (active)
AC50 [22]: 2.47 µM (active)
AC50 [23]: 6.21 µM (active)

COC(=O)c1ccc(OC(=O)c2nn(C)cc2Cl)c(OC)c1
IC50 [24]: > 47.1 µM (inactive)
EC50 [25]: > 53 µM (inactive)
AC50 (Escherichia coli): 42.7 µM (active)

CCc1cc(C(=O)NN=C(S)Nc2cc(C)ccc2C)cs1
EC50 [1]: > 150 µM (inactive)
EC50 [2]: 0.382 µM (active)
EC50 [3]: > 180 µM (inactive)
EC50 [4]: > 150 µM (inactive)

O=C1CN(c2nc(-c3cccnc3)nc3sc4c(c23)CCCC4)CCN1
EC50 (HEK293 [10]): > 59.6 µM (inactive)
EC50 (HEK293 [11]): > 59.6 µM (inactive)

O=C(CF)N(O)c1ccc(C=Cc2ccccc2)cc1
AC50 (HEK293 [26]): 0.732 µM (active)
AC50 [27]: 0.734 µM (active)

C/C(=N\NC(=O)c1cccc2ccccc12)c1ccccn1
EC50 [28]: 2.88 µM (active)
EC50 (BJ [12]): 5.73 µM (active)
EC50 (BJ [14]): 3.45 µM (active)
EC50 (BJ [17]): 3.87 µM (active)
EC50 [18]: 2.4 µM (active)
EC50 (Streptococcus): 6.39 µM (active)
IC50 (Nonstructural protein 1): 7.25 µM (active)
EC50 (BJ [21]): 0.497 µM (inconclusive)
CC50 (Vero): 3.56 µM (active)

O=C(c1ccccc1)c1ccc(O)cc1O [2,4-DIHYDROXYBENZOPHENONE]
AC50 (ORF 73): 5.38 µM (active)
AC50 (Keap1/Nrf2): 11.1 µM (active)

CC1CCc2c(N3CCC(O)CC3)c(F)cc3c(=O)c(C(=O)O)cn1c23 (configuration not stated) [NADIFLOXACIN]
AC50 (Escherichia coli): 1.3 µM (active)
